In ChEMBL document CHEMBL3400016, “Isolation, synthesis and anti-hepatitis B virus evaluation of p-hydroxyacetophenone derivatives from Artemisia capillaris” (Bioorg Med Chem Lett, 2015):

Columns and labels:
Hepatitis B virus [1] = experiment: Antiviral activity against hepatitis B viral in human HepG2.2.15 cells assessed as decrease in viral DNA replication treated for 7 days by real time PCR analysis; type: functional, organism-based; conditions: HepG2 2.2.15, 168 h
Hepatitis B virus [2] = experiment: Antiviral activity against hepatitis B viral in human HepG2.2.15 cells assessed as […] antigen HBeAg secretion after 72 hrs by ELISA; type: functional, organism-based; conditions: HepG2 2.2.15, 72 h
[3] = Cytotoxicity against human HepG 2.2.15 cells by MTT assay; type: cell-based, HepG2 2.2.15
[4] = Selectivity index, ratio of CC50 for human HepG2.2.15 cells to IC50 for decrease in hepatitis B viral surface antigen HBsAg secretion in human HepG2(2.2.15) cells; type: functional
Hepatitis B virus [5] = experiment: Antiviral activity against hepatitis B viral in human HepG2.2.15 cells assessed as surface antigen HBsAg secretion after 72 hrs by ELISA; type: functional, organism-based; conditions: HepG2 2.2.15, 72 h
[6] = Selectivity index, ratio of CC50 for human HepG2.2.15 cells to IC50 for decrease in hepatitis B viral DNA replication in human HepG2(2.2.15) cells; type: functional
[7] = Selectivity index, ratio of CC50 for human HepG2.2.15 cells to IC50 for decrease in hepatitis B viral […] antigen HBeAg secretion in human HepG2(2.2.15) cells; type: functional

Structure (SMILES)	IC50 (Hepatitis B virus [1]) [µM]	IC50 (Hepatitis B virus [2]) [µM]	CC50 [3] [µM]	Selectivity Index [4]	IC50 (Hepatitis B virus [5]) [µM]	Selectivity Index [6]	Selectivity Index [7]
CC(=O)c1ccc(OC(=O)c2cccs2)cc1	> 927	> 3710	> 3710	>1	3530	–	–
CC(=O)c1ccc(OC(=O)/C=C/c2ccccc2)cc1	> 719	> 2870	> 2870	>1.2	2400	–	–
COc1cc(/C=C/C(=O)OC[C@H]2O[C@@H](Oc3ccc(C(C)=O)cc3)[C@H](O)[C@@H](O)[C@@H]2O)cc(OC)c1OC	5.8	> 1480	925	1.8	526	160.3	–
COc1cc(O[C@@H]2O[C@H](CO)[C@@H](O)[C@H](O)[C@H]2O)cc(O)c1C(C)=O	92	> 2370	> 2370	–	> 2370	>25.7	–
CC(=O)c1ccc(O[C@@H]2O[C@H](CO[C@@H]3OC[C@@H](O)[C@H](O)[C@H]3O)[C@@H](O)[C@H](O)[C@H]2O)cc1	38.5	> 2600	> 2600	–	> 2600	>67.5	–
COc1cccc(/C=C/C(=O)Oc2ccc(C(C)=O)cc2)c1	> 696	> 2780	> 2780	>2.2	1260	–	–
COc1ccc(/C=C/C(=O)Oc2ccc(C(C)=O)cc2)cc1	> 820	> 3280	> 3280	–	> 3280	–	–
COc1ccc(/C=C/C(=O)Oc2ccc(C(C)=O)cc2)cc1OC	100	> 2620	> 2620	>2.5	1040	>26	–
CC(=O)c1ccc(OC(=O)/C=C/c2ccc3c(c2)OCO3)cc1	> 759	> 3040	> 3040	>1.6	1890	–	–
COc1cc(/C=C/C(=O)Oc2ccc(C(C)=O)cc2)cc(OC)c1OC	115	> 2420	> 2420	>8.5	286	>21.1	–
CC(=O)c1ccc(OC(=O)/C=C/c2ccc(F)c(F)c2)cc1	> 649	1710	> 2600	>4.3	610	–	>1.5
CC(=O)c1ccc(OC(=O)c2ccccc2)cc1	837	> 3350	> 3350	>1.5	2160	–	–
COc1cc(C(=O)Oc2ccc(C(C)=O)cc2)cc(OC)c1OC	88.8	> 2580	1210	1.9	648	13.6	–
CC(=O)c1ccc(OC(=O)c2cccnc2)cc1	154	> 3300	3010	5.5	546	19.5	–
CC(=O)c1ccc(OC(=O)c2ccco2)cc1	> 1010	> 4050	> 4050	>2.2	1830	–	–
CC(=O)c1ccc(O[C@@H]2O[C@H](COC(=O)/C=C/c3ccccc3)[C@@H](O)[C@H](O)[C@H]2O)cc1	67.3	> 1740	> 1740	–	> 1740	>25.9	–
COc1cccc(/C=C/C(=O)OC[C@H]2O[C@@H](Oc3ccc(C(C)=O)cc3)[C@H](O)[C@@H](O)[C@@H]2O)c1	16.8	> 1520	> 1520	>3	499	>90.5	–
COc1ccc(/C=C/C(=O)OC[C@H]2O[C@@H](Oc3ccc(C(C)=O)cc3)[C@H](O)[C@@H](O)[C@@H]2O)cc1	18.5	> 2080	1540	2	782	83.2	–
COc1ccc(/C=C/C(=O)OC[C@H]2O[C@@H](Oc3ccc(C(C)=O)cc3)[C@H](O)[C@@H](O)[C@@H]2O)cc1OC	8.8	> 1450	> 1450	>2.1	696	>165	–
CC(=O)c1ccc(O[C@@H]2O[C@H](COC(=O)/C=C/c3ccc4c(c3)OCO4)[C@@H](O)[C@H](O)[C@H]2O)cc1	74.4	> 1470	> 1470	>2.1	698	>19.8	–
CC(=O)c1ccc(O[C@@H]2O[C@H](COC(=O)/C=C/c3cccc(F)c3)[C@@H](O)[C@H](O)[C@H]2O)cc1	22.8	> 1450	828	1.9	434	36.5	–
CC(=O)c1ccc(O[C@@H]2O[C@H](COC(=O)/C=C/c3ccc(F)cc3)[C@@H](O)[C@H](O)[C@H]2O)cc1	64.8	> 1520	917	1.5	613	>23.4	–
CC(=O)c1ccc(O[C@@H]2O[C@H](COC(=O)/C=C/c3ccc(F)c(F)c3)[C@@H](O)[C@H](O)[C@H]2O)cc1	22.5	> 1770	874	1.7	515	38.9	–
CC(=O)c1ccc(O[C@@H]2O[C@H](COC(=O)c3ccccc3)[C@@H](O)[C@H](O)[C@H]2O)cc1	93.7	> 1680	1050	1.5	678	11.2	–
COc1cc(C(=O)OC[C@H]2O[C@@H](Oc3ccc(C(C)=O)cc3)[C@H](O)[C@@H](O)[C@@H]2O)cc(OC)c1OC	20.7	> 1490	890	–	1350	42.9	–
CC(=O)c1ccc(O[C@@H]2O[C@H](COC(=O)c3cccnc3)[C@@H](O)[C@H](O)[C@H]2O)cc1	103	> 1650	> 1650	>1.2	1430	>16	–
CC(=O)c1ccc(O[C@@H]2O[C@H](COC(=O)c3ccco3)[C@@H](O)[C@H](O)[C@H]2O)cc1	101	> 1880	1170	2.1	571	11.7	–
CC(=O)c1ccc(O[C@@H]2O[C@H](COC(=O)c3cccs3)[C@@H](O)[C@H](O)[C@H]2O)cc1	31.4	> 1710	1570	5.2	301	50.1	–
CC(=O)c1ccc(O[C@@H]2O[C@H](CO)[C@@H](O)[C@H](O)[C@H]2O)cc1 [PICEIN]	228	> 3950	> 3950	–	> 3950	>17.3	–
C[C@H](Cn1cnc2c(N)ncnc21)OCP(=O)(O)O [TENOFOVIR ANHYDROUS]	2.9	> 1740	> 1740	–	> 1740	>600.8	–
